Assays:
[1] = mouse, microsomes, 0.5 h, 1 µM
Liver microsomes [2] = conditions: human, 0.5 h, 1 µM
Liver microsomes [3] = conditions: human, 0.5 h, 2 µM
[4] = mouse, microsomes, 0.5 h, 2 µM
in vitro [5] = conditions: mouse, liver microsomes
in vitro [6] = conditions: human, liver microsomes
in vitro [7] = conditions: human, liver microsomes; remark: listed apart in the source
in vitro [8] = conditions: mouse, liver microsomes; remark: listed apart in the source
[9] = Half life in rat; type: ADME, organism-based; conditions: in vivo
[10] = Clearance in rat; type: ADME, organism-based; conditions: in vivo
[11] = AUC in rat; type: ADME, organism-based; conditions: plasma
[12] = Oral bioavailability in rat; type: ADME, organism-based; conditions: in vivo

O=C(O)C1CC2Cc3[nH]ncc3C(C1)N2S(=O)(=O)c1ccc(Cl)cc1 (stereo unspecified)
Stability [1]: Not Active | Stability (Liver microsomes [2]): Not Active | Stability (Liver microsomes [3]): Not Active | Stability [4]: Not Active

CN(C)C(=O)N1CC2Cc3[nH]ncc3C(C1)N2S(=O)(=O)c1ccc(Cl)cc1 (stereo unspecified)
Stability (Liver microsomes [3]): Not Active | Stability [4]: Not Active | remaining at 0.5 h, 1 µM (in vitro [5]; Stability): 56% | remaining at 0.5 h, 1 µM (in vitro [6]; Stability): 86%

O=S(=O)(c1ccc(Cl)cc1)N1C2COCC1c1cn[nH]c1C2 (stereo in doubt; 32)
Stability (Liver microsomes [2]): 100% | remaining at 0.5 h, 1 µM (in vitro [5]; Stability): 75% | remaining at 0.5 h, 2 µM (in vitro [7]; Stability): 71% | remaining at 0.5 h, 2 µM (in vitro [8]; Stability): 93%

N#CC1CC2Cc3[nH]ncc3C(C1)N2S(=O)(=O)c1ccc(Cl)cc1 (stereo in doubt)
half-life [9]: 1.02 h | clearance [10]: 28.4 mL/min/kg | AUC [11]: 3.4 µM·h | bioavailability [12]: 21% | Stability [1]: 74% | Stability (Liver microsomes [2]): 70% | remaining at 0.5 h, 2 µM (in vitro [7]; Stability): 45% | remaining at 0.5 h, 2 µM (in vitro [8]; Stability): 81%

N#CC1CC2Cc3[nH]ncc3C(C1)N2S(=O)(=O)c1ccc(Cl)cc1 (stereo in doubt; form 1)
Stability [1]: 80% | Stability (Liver microsomes [2]): 72%

O=S(=O)(c1ccc(Cl)cc1)N1C2Cc3[nH]ncc3C1CC(/C=C/C(F)(F)F)C2 (stereo unspecified)
remaining at 0.5 h, 1 µM (in vitro [5]; Stability): 36% | remaining at 0.5 h, 1 µM (in vitro [6]; Stability): 6% | remaining at 0.5 h, 2 µM (in vitro [7]; Stability): 2% | remaining at 0.5 h, 2 µM (in vitro [8]; Stability): 39%

O=S(=O)(c1ccc(Cl)cc1)N1C2Cc3[nH]ncc3C1CC(/C=C\C(F)(F)F)C2 (stereo unspecified)
Stability (Liver microsomes [3]): Not Active | Stability [4]: Not Active | remaining at 0.5 h, 1 µM (in vitro [5]; Stability): 17% | remaining at 0.5 h, 1 µM (in vitro [6]; Stability): 38%

Cl.O=S(=O)(c1ccc(Cl)cc1)N1C2COCC1c1cn[nH]c1C2 (stereo unspecified)
Stability [1]: 78% | Stability (Liver microsomes [2]): 81% | Stability (Liver microsomes [3]): 71% | Stability [4]: 94%

O=S(=O)(c1ccc(Cl)cc1)N1C2COCC1c1cn[nH]c1C2 (stereo in doubt)
half-life [9]: 1.15 h | clearance [10]: 31.2 mL/min/kg | AUC [11]: 2.9 µM·h | bioavailability [12]: 19% | Stability [1]: 80% | Stability (Liver microsomes [2]): 78% | Stability (Liver microsomes [3]): 86% | Stability [4]: 100%

CS(=O)(=O)N1CC2Cc3[nH]ncc3C(C1)N2S(=O)(=O)c1ccc(Cl)cc1 (stereo unspecified)
remaining at 0.5 h, 1 µM (in vitro [5]): 80% | remaining at 0.5 h, 1 µM (in vitro [6]): 84% | remaining at 0.5 h, 2 µM (in vitro [7]): 55% | remaining at 0.5 h, 2 µM (in vitro [8]): 96%

O=S(=O)(c1ccc(Cl)cc1)N1C2Cc3[nH]ncc3C1CC(/C=C\Cl)C2 (stereo unspecified)
Stability (Liver microsomes [3]): Not Active | Stability [4]: Not Active | remaining at 0.5 h, 1 µM (in vitro [5]; Stability): 3% | remaining at 0.5 h, 1 µM (in vitro [6]; Stability): 14%

O=S(=O)(c1ccc(Cl)cc1)N1C2CCCC1c1cn[nH]c1C2 (stereo unspecified)
half-life [9]: 0.4 h | clearance [10]: 38.9 mL/min/kg | AUC [11]: 0.16 µM·h | bioavailability [12]: 2% | remaining at 0.5 h, 1 µM (in vitro [5]; Stability): 15% | remaining at 0.5 h, 1 µM (in vitro [6]; Stability): 48% | remaining at 0.5 h, 2 µM (in vitro [7]; Stability): 0% | remaining at 0.5 h, 2 µM (in vitro [8]; Stability): 5%

N#CC1CC2Cc3[nH]ncc3C(C1)N2S(=O)(=O)c1ccc(Cl)cc1 (stereo in doubt; form 2)
Stability (Liver microsomes [3]): Not Active | Stability [4]: Not Active | remaining at 0.5 h, 1 µM (in vitro [5]; Stability): 86% | remaining at 0.5 h, 1 µM (in vitro [6]; Stability): 68%

O=S(=O)(c1ccc(Cl)cc1)N1C2Cc3[nH]ncc3C1CC(/C=C/Cl)C2 (stereo unspecified)
remaining at 0.5 h, 1 µM (in vitro [5]; Stability): 7% | remaining at 0.5 h, 1 µM (in vitro [6]; Stability): 6% | remaining at 0.5 h, 2 µM (in vitro [7]; Stability): 1% | remaining at 0.5 h, 2 µM (in vitro [8]; Stability): 37%
